# Experimental data reported in paper PMC3877544 (Cell Death & Disease, 2013).
# Molecular target: voltage-dependent anion channel 1 (VDAC1) (Rattus norvegicus, UniProt Q9Z2L0)
# Test: microscale thermophoresis with fluorescently labeled purified VDAC1
# Assay type: binding
# Sequence of voltage-dependent anion channel 1 (VDAC1) (Q9Z2L0 2-283): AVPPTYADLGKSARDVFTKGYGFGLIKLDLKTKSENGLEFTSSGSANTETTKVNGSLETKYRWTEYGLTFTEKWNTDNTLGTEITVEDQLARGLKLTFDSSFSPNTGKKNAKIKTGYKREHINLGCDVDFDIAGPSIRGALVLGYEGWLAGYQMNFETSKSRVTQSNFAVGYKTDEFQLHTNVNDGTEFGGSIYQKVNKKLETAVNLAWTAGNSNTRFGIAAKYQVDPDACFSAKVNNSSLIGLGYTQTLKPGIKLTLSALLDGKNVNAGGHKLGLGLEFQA
smiles,measurement,value
"C=C(C)[C@@H]1CCC(C)=C[C@H]1c1c(O)cc(CCCCC)cc1O [CBD, cannabidiol]",Kd,11.2 ± 6 µM
